Consider ten compounds from PubChem BioAssay (NCI).

Some test systems named below: UACC-62 melanoma; TK-10 renal; SF-295 CNS; OVCAR-5 ovarian; IGROV1 ovarian; A549 NSCLC; SK-OV-3 ovarian; U251 CNS; CAKI-1 renal; NCI-H522 lung.
Common to all, as to assay: growth of human tumour cells (NCI), 48 h

SMILES strings stand for the structures.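 Tested at 5 concentrations; 48 h exposure; 96-well plates; endpoints linearly interpolated, else capped at highest concentration. GI50 = concentration required for 50% inhibition of growth. TGI is the concentration that stops growth completely.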

As for `COC(=O)CC[C@H](Cc1ccccc1)NC(=O)c1csc([C@@H](C[C@H](C(C)C)N(C)C(=O)[C@@H](NC(=O)[C@H]2CCCCN2C)C(C)C)OC(C)=O)n1`, the GI50 in the assay with UACC-62 melanoma is under 0.0025 µM; with TK-10 renal, over 25 µM; with SF-295 CNS, under 0.0025 µM; with OVCAR-5 ovarian, 0.00816 µM; in the assay on IGROV1 ovarian, 0.00331 µM; in the assay on A549 NSCLC it was 0.00744 µM. The GI50 in the assay with SK-OV-3 ovarian and with U251 CNS was under 0.0025 µM each time. Moreover, the TGI in the assay on UACC-62 melanoma, with TK-10 renal, in the assay with SF-295 CNS, with OVCAR-5 ovarian, with IGROV1 ovarian and in the assay with A549 NSCLC was over 25 µM each time. Also, the TGI with SK-OV-3 ovarian and in the assay with U251 CNS was over 25 µM in each case.

`CCN1CCN(CC(=O)N2c3cccc4cccc(c34)N(C(=O)CN3CCN(CC)CC3)C2c2cn(-c3ccccc3)nc2-c2cccc([N+](=O)[O-])c2)CC1`: the GI50 in the assay with UACC-62 melanoma is 1.73 µM; in the assay on TK-10 renal it was 1.88 µM; in the assay with SF-295 CNS, 1.84 µM; with OVCAR-5 ovarian, 1.8 µM; in the assay on IGROV1 ovarian, 1.62 µM; with SK-OV-3 ovarian it was 1.9 µM. Also, the GI50 with U251 CNS is 1.53 µM; in the assay on CAKI-1 renal it was 1.4 µM. The TGI in the assay with UACC-62 melanoma was 3.2 µM; with TK-10 renal it was 3.69 µM; in the assay with SF-295 CNS, 3.44 µM; in the assay with OVCAR-5 ovarian, 3.45 µM; with IGROV1 ovarian, 3.28 µM; with SK-OV-3 ovarian it was 3.74 µM. Also, the TGI in the assay on U251 CNS was determined as 3.21 µM; in the assay on CAKI-1 renal, 2.9 µM.

`CC(C)OP(=O)(NC(=S)c1ccccc1)OC(C)C`: the TGI with UACC-62 melanoma, in the assay with TK-10 renal, in the assay with SF-295 CNS, in the assay with OVCAR-5 ovarian, in the assay on IGROV1 ovarian and in the assay on A549 NSCLC was over 100 µM throughout. For the same compound, the TGI in the assay with SK-OV-3 ovarian, in the assay on U251 CNS and in the assay on CAKI-1 renal was over 100 µM throughout.

As to `CO/N=C(\C)CCC#Cc1ccccc1C(=O)OC`, the TGI in the assay on UACC-62 melanoma, in the assay on TK-10 renal, in the assay on SF-295 CNS, in the assay on OVCAR-5 ovarian, with IGROV1 ovarian and with A549 NSCLC was over 10 µM in each case. The TGI in the assay with SK-OV-3 ovarian, with U251 CNS and in the assay with CAKI-1 renal was over 10 µM in each case.

In the case of `O=C(O)C1CC(O)CN1` (stereo unspecified), the TGI in the assay with UACC-62 melanoma, with TK-10 renal, with SF-295 CNS, in the assay with OVCAR-5 ovarian, in the assay on IGROV1 ovarian and in the assay with A549 NSCLC was over 100 µM in each case. Besides, the TGI in the assay on SK-OV-3 ovarian, in the assay on U251 CNS and in the assay with CAKI-1 renal was over 100 µM in each case.

Regarding `Cc1cc2c(C)nn(Cc3ccc(Cl)cc3)c2c(C#N)c1C`, the TGI in the assay with UACC-62 melanoma, in the assay with TK-10 renal, in the assay on SF-295 CNS, in the assay on OVCAR-5 ovarian, in the assay on IGROV1 ovarian and in the assay on A549 NSCLC was over 100 µM in each case. Also, the TGI in the assay with SK-OV-3 ovarian and in the assay on U251 CNS was over 100 µM in each case.

Regarding `Cc1ccc(O)c(NC(=O)c2ccc(CNc3ccnc(C(F)(F)F)c3)cc2)c1`, the GI50 in the assay on UACC-62 melanoma was 1.07 µM; in the assay with TK-10 renal, 10.8 µM; with SF-295 CNS, 1.35 µM; with OVCAR-5 ovarian it was 16.3 µM; in the assay on IGROV1 ovarian, 1.82 µM; in the assay on A549 NSCLC, 12.9 µM. For the same compound, the GI50 is 3.87 µM with SK-OV-3 ovarian, 23.5 µM with U251 CNS and 6.33 µM in the assay on CAKI-1 renal. Besides, the TGI in the assay with UACC-62 melanoma is 13.4 µM; in the assay with TK-10 renal, 40.1 µM; with SF-295 CNS, 12.2 µM; in the assay with OVCAR-5 ovarian it was 69.1 µM; in the assay on IGROV1 ovarian, 16.4 µM; in the assay with A549 NSCLC it was over 100 µM. In addition, the TGI in the assay on SK-OV-3 ovarian is 36.7 µM; in the assay with U251 CNS it was over 100 µM; with CAKI-1 renal it was 40.6 µM.

As to `CCCSS[C@H]1NC(=O)[C@H]1NC(=O)COc1ccccc1`, the TGI in the assay on UACC-62 melanoma is 32.1 µM; in the assay with TK-10 renal it was 63.9 µM; in the assay on SF-295 CNS it was over 100 µM; in the assay on OVCAR-5 ovarian, over 100 µM; with IGROV1 ovarian it was 43.2 µM; in the assay with A549 NSCLC it was 67.3 µM. Also, the TGI with SK-OV-3 ovarian was over 100 µM; with U251 CNS, 31.8 µM; in the assay on CAKI-1 renal it was 43.6 µM.

On to `COc1cccc(NC(=O)/C(Cc2nc3ccccc3nc2C)=N/NC(=O)C[n+]2ccccc2)c1`, for which the TGI in the assay on UACC-62 melanoma, with TK-10 renal, in the assay on SF-295 CNS, with OVCAR-5 ovarian, with IGROV1 ovarian and in the assay on A549 NSCLC was over 100 µM in each case. In addition, the TGI in the assay on SK-OV-3 ovarian was over 100 µM; in the assay with U251 CNS, 39.8 µM; with CAKI-1 renal, over 100 µM.

As to `CCN(CC)C(=O)C(C)n1cc(C)c(=O)[nH]c1=O` (stereo unspecified), the TGI in the assay with UACC-62 melanoma, in the assay with TK-10 renal, in the assay with SF-295 CNS, in the assay with OVCAR-5 ovarian, in the assay on NCI-H522 lung and in the assay with IGROV1 ovarian was over 100 µM in each case. Also, the TGI in the assay on A549 NSCLC and with U251 CNS was over 100 µM each time.
